Earlier results as cited in patent US20150366978A1, “Compositions Containing Chondroitin Sulphate, Proteolytic Enzymes and Sulphydryl Compounds for Improving the Bioavailability of Chondroitin Sulphate” (GNOSIS S.P.A., priority 2013, published 2015).

Experiments:
[1] = oral

## chondroitin sulphate [CS]
[1]; including oligosaccharides, % of the polysaccharide ingested
  total uptake of CS by the intestinal mucosa: 20-23%

## chondroitin sulphate [high-molecular-weight CS]
[1]; absorbed as intact polysaccharide
  absorption of high-molecular-weight CS: 1-5%

## bromelain
other
  oral bioavailability: around 40%
